The text below walks through data of PubChem BioAssay AID1259407 (Chemical Carcinogenesis Research Information System (CCRIS), 2018).

Molecules are shown by their SMILES. Active and inactive are the calls of the source. No rule for the calls is given here.

The test system of this series is CCRIS mutagenicity, Ames/micronucleus/aberration tests. Put plainly: CCRIS mutagenicity studies.

`C[C@@H]1O[C@@H](O[C@H]2C[C@](O)(C(=O)CO)Cc3c(O)c4c(c(O)c32)C(=O)c2ccccc2C4=O)C[C@H](N)[C@@H]1O`: the mutagenic call runs as follows: (Test System: AMES SALMONELLA TYPHIMURIUM, Strain/Indicator: GW257, Metabolic Activation: NONE, Method: STANDARD PLATE) “active; positive”; (Test System: AMES SALMONELLA TYPHIMURIUM, Strain/Indicator: TA97, Metabolic Activation: NONE, Method: STANDARD PLATE) “inactive; negative”; (Test System: AMES SALMONELLA TYPHIMURIUM, Strain/Indicator: TA98, Metabolic Activation: NONE, Method: PREINCUBATION) “active; positive”; (Test System: AMES SALMONELLA TYPHIMURIUM, Strain/Indicator: TA98, Metabolic Activation: NONE, Method: STANDARD PLATE) “active; positive”; (Test System: AMES SALMONELLA TYPHIMURIUM, Strain/Indicator: TA100, Metabolic Activation: NONE, Method: STANDARD PLATE) “active; positive”; (Test System: AMES SALMONELLA TYPHIMURIUM, Strain/Indicator: TA104, Metabolic Activation: NONE, Method: STANDARD PLATE) “inactive; negative”. The mutagenic call is, setting by setting: (Test System: AMES SALMONELLA TYPHIMURIUM, Strain/Indicator: TA1538, Metabolic Activation: NONE, Method: STANDARD PLATE) “active; positive”; (Test System: AMES SALMONELLA TYPHIMURIUM, Strain/Indicator: TA2637, Metabolic Activation: NONE, Method: STANDARD PLATE) “active; positive”; (Test System: CHINESE HAMSTER V-79, Strain/Indicator: V-79/6-THIOGUANINE, Metabolic Activation: NONE, Method: SUSPENSION/PLATE) “active; positive”; (Test System: CHINESE HAMSTER V-79, Strain/Indicator: V-79/6-THIOGUANINE, Metabolic Activation: RAT, LIVER, HOMOGENATE, Method: SUSPENSION/PLATE) “inactive; negative”; (Test System: UDS RAT HEPATOCYTES, Strain/Indicator: THY INCORP, Metabolic Activation: NONE, Method: AUTOMATIC COLONY COUNTER) “active; positive”.
For `c1ccc2c(c1)-c1ccc3ccccc3c1C1NC21` (stereo unspecified), the mutagenic call is “active; positive” (Test System: AMES SALMONELLA TYPHIMURIUM, Strain/Indicator: TA98, Metabolic Activation: NONE, Method: PREINCUBATION (KCL-CONTAINING OR KCL-FREE MEDIA)); “active; positive” (Test System: AMES SALMONELLA TYPHIMURIUM, Strain/Indicator: TA100, Metabolic Activation: NONE, Method: PREINCUBATION (KCL-CONTAINING MEDIUM)); “active; positive” (Test System: AMES SALMONELLA TYPHIMURIUM, Strain/Indicator: TA100, Metabolic Activation: NONE, Method: PREINCUBATION (KCL-FREE MEDIUM)).
Regarding `O=[N+]([O-])c1ccc2c(ccc3cc4c(ccc5ccccc54)cc32)c1`, the mutagenic call is “active; positive” (Test System: AMES SALMONELLA TYPHIMURIUM, Strain/Indicator: TA98(1,8-DNP6), Metabolic Activation: NONE); “active; positive” (Test System: AMES SALMONELLA TYPHIMURIUM, Strain/Indicator: TA98(1,8-DNP6), Metabolic Activation: RAT, LIVER, S-9, AROCLOR 1254); “active; positive” (Test System: AMES SALMONELLA TYPHIMURIUM, Strain/Indicator: TA98(NR), Metabolic Activation: NONE); “active; positive” (Test System: AMES SALMONELLA TYPHIMURIUM, Strain/Indicator: TA98(NR), Metabolic Activation: RAT, LIVER, S-9, AROCLOR 1254); “active; positive” (Test System: AMES SALMONELLA TYPHIMURIUM, Strain/Indicator: TA98, Metabolic Activation: NONE); “active; positive” (Test System: AMES SALMONELLA TYPHIMURIUM, Strain/Indicator: TA98, Metabolic Activation: RAT, LIVER, S-9, AROCLOR 1254). The mutagenic call is “inactive; negative” (Test System: AMES SALMONELLA TYPHIMURIUM, Strain/Indicator: TA100(NR), Metabolic Activation: NONE); “active; positive” (Test System: AMES SALMONELLA TYPHIMURIUM, Strain/Indicator: TA100(NR), Metabolic Activation: RAT, LIVER, S-9, AROCLOR 1254); “inactive; negative” (Test System: AMES SALMONELLA TYPHIMURIUM, Strain/Indicator: TA100, Metabolic Activation: NONE); “active; positive” (Test System: AMES SALMONELLA TYPHIMURIUM, Strain/Indicator: TA100, Metabolic Activation: RAT, LIVER, S-9, AROCLOR 1254); “inactive; negative” (Test System: AMES SALMONELLA TYPHIMURIUM, Strain/Indicator: TA104, Metabolic Activation: NONE); “active; positive” (Test System: AMES SALMONELLA TYPHIMURIUM, Strain/Indicator: TA104, Metabolic Activation: RAT, LIVER, S-9, AROCLOR 1254).
